# Measurements from PubChem BioAssay (NCI).
#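 Each compound was tested at five concentrations against cells in 96-well plates for 48 hours. The concentration for full growth arrest is given as TGI.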
# What was measured:
# Test in all cases: growth of human tumour cells (NCI), 48 h
# EKVX NSCLC = system: EKVX NSCLC
# UACC-257 melanoma = system: UACC-257 melanoma
# T-47D breast = system: T-47D breast
# SF-295 CNS = system: SF-295 CNS
# SNB-19 CNS = system: SNB-19 CNS
# OVCAR-3 ovarian = system: OVCAR-3 ovarian
# UACC-62 melanoma = system: UACC-62 melanoma
# MOLT-4 leukemia = system: MOLT-4 leukemia
# HCT-15 colon = system: HCT-15 colon
# SF-268 CNS = system: SF-268 CNS
# PC-3 prostate = system: PC-3 prostate
# MALME-3M melanoma = system: MALME-3M melanoma
# ACHN renal = system: ACHN renal
# NCI-H522 lung = system: NCI-H522 lung
# A549 NSCLC = system: A549 NSCLC
# SN12C renal = system: SN12C renal
# SF-539 CNS = system: SF-539 CNS
# HT29 colon = system: HT29 colon
# M14 melanoma = system: M14 melanoma
# RPMI-8226 leukemia = system: RPMI-8226 leukemia
# U251 CNS = system: U251 CNS
# DU-145 prostate = system: DU-145 prostate
# IGROV1 ovarian = system: IGROV1 ovarian
# HOP-62 NSCLC = system: HOP-62 NSCLC
# SNB-75 CNS = system: SNB-75 CNS
# SR leukemia = system: SR leukemia
# HCT-116 colon = system: HCT-116 colon
# MCF7 breast = system: MCF7 breast
# TK-10 renal = system: TK-10 renal
# NCI-H23 lung = system: NCI-H23 lung
# MDA-N = system: MDA-N
# CAKI-1 renal = system: CAKI-1 renal
# MDA-MB-231 breast = system: MDA-MB-231 breast
# LOX IMVI melanoma = system: LOX IMVI melanoma
# SK-MEL-28 melanoma = system: SK-MEL-28 melanoma
# SW-620 colon = system: SW-620 colon
# SK-MEL-5 melanoma = system: SK-MEL-5 melanoma
# 786-0 renal = system: 786-0 renal
# NCI-H226 lung = system: NCI-H226 lung
# NCI/ADR-RES ovarian = system: NCI/ADR-RES ovarian
# COLO 205 colon = system: COLO 205 colon
# HCC-2998 colon = system: HCC-2998 colon
# OVCAR-5 ovarian = system: OVCAR-5 ovarian
# UO-31 renal = system: UO-31 renal
# RXF 393 renal = system: RXF 393 renal
# SK-OV-3 ovarian = system: SK-OV-3 ovarian
# KM12 colon = system: KM12 colon
# OVCAR-8 ovarian = system: OVCAR-8 ovarian
# HOP-92 NSCLC = system: HOP-92 NSCLC
# SK-MEL-2 melanoma = system: SK-MEL-2 melanoma
# MDA-MB-435 = system: MDA-MB-435
# BT-549 breast = system: BT-549 breast
# HS 578T breast = system: HS 578T breast
# OVCAR-4 ovarian = system: OVCAR-4 ovarian
# HL-60(TB) leukemia = system: HL-60(TB) leukemia
# CCRF-CEM leukemia = system: CCRF-CEM leukemia
# A498 renal = system: A498 renal
# K-562 leukemia = system: K-562 leukemia
# NCI-H460 lung = system: NCI-H460 lung
smiles,measurement,setting,value
CC#CC(O)(C(=O)OC1CCC2CCC1N2C)C1CCCC1 (stereo unspecified),TGI,EKVX NSCLC,> 100 µM
same,TGI,UACC-257 melanoma,> 100 µM
same,TGI,T-47D breast,> 100 µM
same,TGI,SF-295 CNS,> 100 µM
same,TGI,SNB-19 CNS,> 100 µM
same,TGI,OVCAR-3 ovarian,> 100 µM
same,TGI,UACC-62 melanoma,> 100 µM
same,TGI,MOLT-4 leukemia,> 100 µM
same,TGI,HCT-15 colon,> 100 µM
same,TGI,SF-268 CNS,> 100 µM
same,TGI,PC-3 prostate,> 100 µM
same,TGI,MALME-3M melanoma,> 100 µM
same,TGI,ACHN renal,> 10 µM
same,TGI,NCI-H522 lung,> 100 µM
same,TGI,A549 NSCLC,> 100 µM
same,TGI,SN12C renal,> 100 µM
same,TGI,SF-539 CNS,> 100 µM
same,TGI,HT29 colon,> 100 µM
same,TGI,M14 melanoma,> 100 µM
same,TGI,RPMI-8226 leukemia,> 100 µM
same,TGI,U251 CNS,> 10 µM
same,TGI,DU-145 prostate,> 100 µM
same,TGI,IGROV1 ovarian,> 100 µM
same,TGI,HOP-62 NSCLC,> 100 µM
same,TGI,SNB-75 CNS,> 100 µM
same,TGI,SR leukemia,> 100 µM
same,TGI,HCT-116 colon,> 100 µM
same,TGI,MCF7 breast,> 100 µM
same,TGI,TK-10 renal,> 100 µM
same,TGI,NCI-H23 lung,> 100 µM
same,TGI,MDA-N,> 100 µM
same,TGI,CAKI-1 renal,> 100 µM
same,TGI,MDA-MB-231 breast,> 100 µM
same,TGI,LOX IMVI melanoma,> 100 µM
same,TGI,SK-MEL-28 melanoma,> 100 µM
same,TGI,SW-620 colon,> 100 µM
same,TGI,SK-MEL-5 melanoma,> 100 µM
same,TGI,786-0 renal,> 100 µM
same,TGI,NCI-H226 lung,> 100 µM
same,TGI,NCI/ADR-RES ovarian,> 10 µM
same,TGI,COLO 205 colon,> 100 µM
same,TGI,HCC-2998 colon,> 100 µM
same,TGI,OVCAR-5 ovarian,> 10 µM
same,TGI,UO-31 renal,> 100 µM
same,TGI,RXF 393 renal,> 100 µM
same,TGI,SK-OV-3 ovarian,> 100 µM
same,TGI,KM12 colon,> 100 µM
same,TGI,OVCAR-8 ovarian,> 100 µM
Cc1cc(Cl)nc(Nc2nc3ccccc3[nH]2)n1,TGI,UACC-257 melanoma,> 100 µM
same,TGI,SF-295 CNS,> 100 µM
same,TGI,SNB-19 CNS,> 100 µM
same,TGI,OVCAR-3 ovarian,> 100 µM
same,TGI,UACC-62 melanoma,> 100 µM
same,TGI,HCT-15 colon,> 100 µM
same,TGI,SF-268 CNS,> 100 µM
same,TGI,HOP-92 NSCLC,> 100 µM
same,TGI,PC-3 prostate,> 100 µM
same,TGI,SK-MEL-2 melanoma,> 100 µM
same,TGI,MALME-3M melanoma,> 100 µM
same,TGI,ACHN renal,> 100 µM
same,TGI,MDA-MB-435,> 100 µM
same,TGI,NCI-H522 lung,5.96 µM
same,TGI,A549 NSCLC,> 100 µM
same,TGI,SN12C renal,> 100 µM
same,TGI,SF-539 CNS,> 100 µM
same,TGI,HT29 colon,> 100 µM
same,TGI,M14 melanoma,> 100 µM
same,TGI,U251 CNS,> 100 µM
same,TGI,DU-145 prostate,> 100 µM
same,TGI,IGROV1 ovarian,> 100 µM
same,TGI,BT-549 breast,> 100 µM
same,TGI,HS 578T breast,> 100 µM
same,TGI,OVCAR-4 ovarian,> 100 µM
same,TGI,HOP-62 NSCLC,> 100 µM
same,TGI,SNB-75 CNS,> 100 µM
same,TGI,HL-60(TB) leukemia,> 100 µM
same,TGI,SR leukemia,> 100 µM
same,TGI,HCT-116 colon,> 100 µM
same,TGI,CCRF-CEM leukemia,> 100 µM
same,TGI,MCF7 breast,> 100 µM
same,TGI,A498 renal,> 100 µM
same,TGI,K-562 leukemia,> 100 µM
same,TGI,TK-10 renal,> 100 µM
same,TGI,NCI-H23 lung,> 100 µM
same,TGI,MDA-N,> 100 µM
same,TGI,NCI-H460 lung,> 100 µM
same,TGI,MDA-MB-231 breast,> 100 µM
same,TGI,LOX IMVI melanoma,> 100 µM
same,TGI,SK-MEL-28 melanoma,> 100 µM
same,TGI,SW-620 colon,> 100 µM
same,TGI,SK-MEL-5 melanoma,> 100 µM
same,TGI,786-0 renal,> 100 µM
same,TGI,NCI-H226 lung,> 100 µM
same,TGI,NCI/ADR-RES ovarian,> 100 µM
same,TGI,COLO 205 colon,> 100 µM
same,TGI,HCC-2998 colon,> 100 µM
same,TGI,OVCAR-5 ovarian,> 100 µM
same,TGI,UO-31 renal,> 100 µM
same,TGI,RXF 393 renal,> 100 µM
same,TGI,SK-OV-3 ovarian,> 100 µM
same,TGI,OVCAR-8 ovarian,> 100 µM
C#Cc1cc(-c2nc3ccccc3s2)ccc1N,TGI,EKVX NSCLC,65 µM
same,TGI,UACC-257 melanoma,27.9 µM
same,TGI,T-47D breast,45.6 µM
same,TGI,SF-295 CNS,54.8 µM
same,TGI,SNB-19 CNS,66.9 µM
same,TGI,OVCAR-3 ovarian,42.4 µM
same,TGI,UACC-62 melanoma,36.6 µM
same,TGI,MOLT-4 leukemia,91.1 µM
same,TGI,HCT-15 colon,42.8 µM
same,TGI,SF-268 CNS,> 100 µM
same,TGI,HOP-92 NSCLC,44.7 µM
same,TGI,PC-3 prostate,94.1 µM
same,TGI,SK-MEL-2 melanoma,35.9 µM
same,TGI,MALME-3M melanoma,63.4 µM
same,TGI,ACHN renal,70.3 µM
same,TGI,MDA-MB-435,40.4 µM
same,TGI,NCI-H522 lung,32.3 µM
same,TGI,A549 NSCLC,42.8 µM
same,TGI,SN12C renal,79 µM
same,TGI,SF-539 CNS,81.3 µM
same,TGI,HT29 colon,33 µM
same,TGI,M14 melanoma,34.5 µM
same,TGI,RPMI-8226 leukemia,76.8 µM
same,TGI,U251 CNS,63.6 µM
same,TGI,DU-145 prostate,39.5 µM
same,TGI,IGROV1 ovarian,53.8 µM
same,TGI,BT-549 breast,94.9 µM
same,TGI,OVCAR-4 ovarian,47.1 µM
same,TGI,HOP-62 NSCLC,> 100 µM
same,TGI,HL-60(TB) leukemia,> 100 µM
same,TGI,SR leukemia,92.4 µM
same,TGI,HCT-116 colon,32.9 µM
same,TGI,CCRF-CEM leukemia,56 µM
same,TGI,MCF7 breast,31.4 µM
same,TGI,K-562 leukemia,89 µM
same,TGI,TK-10 renal,36.8 µM
same,TGI,NCI-H23 lung,55.9 µM
same,TGI,MDA-N,97.6 µM
same,TGI,CAKI-1 renal,50.4 µM
same,TGI,NCI-H460 lung,74.5 µM
same,TGI,LOX IMVI melanoma,27.8 µM
same,TGI,SK-MEL-28 melanoma,35.6 µM
same,TGI,SW-620 colon,81.8 µM
same,TGI,SK-MEL-5 melanoma,68.6 µM
same,TGI,786-0 renal,> 100 µM
same,TGI,NCI-H226 lung,47.8 µM
same,TGI,NCI/ADR-RES ovarian,86.5 µM
same,TGI,COLO 205 colon,32.9 µM
same,TGI,HCC-2998 colon,32.6 µM
same,TGI,OVCAR-5 ovarian,> 100 µM
same,TGI,UO-31 renal,56.3 µM
same,TGI,RXF 393 renal,93.9 µM
same,TGI,SK-OV-3 ovarian,69.7 µM
same,TGI,KM12 colon,46.9 µM
same,TGI,OVCAR-8 ovarian,> 100 µM
